From article PMC10535268, “Design, Synthesis, and Evaluation of Novel Indole Hybrid Chalcones and Their Antiproliferative and Antioxidant Activity” (Molecules, 2023)

Columns and labels:
Hela = assay: MTT antiproliferative assay, HeLa; format: cell-based, human; conditions: 72 h incubation, mean ± SD of three independent experiments
Procedure: Table 2 IC50 (μM) ± SD of tested compounds in different cell lines after 72 h incubation. | column: Cell Line, IC50 (µM) ± SD / Hela

Bj-5ta = assay: MTT cytotoxicity assay, non-cancer Bj-5ta; format: cell-based, human; conditions: 72 h incubation, mean ± SD of three independent experiments
MCF-10A = assay: MTT cytotoxicity assay, non-cancer MCF-10A; format: cell-based, human; conditions: 72 h incubation, mean ± SD of three independent experiments
MCF-7 = assay: MTT antiproliferative assay, MCF-7; format: cell-based, human; conditions: mean ± SD of three independent experiments
MDA-MB-231 = assay: MTT antiproliferative assay, MDA-MB-231; format: cell-based, human; conditions: MDA-MB-231, 72 h incubation, mean ± SD of three independent experiments
Jurkat = assay: MTT antiproliferative assay, Jurkat; format: cell-based, human; conditions: 72 h incubation, mean ± SD of three independent experiments
HCT116 = assay: MTT antiproliferative assay, HCT116; format: cell-based, human; conditions: mean ± SD of three independent experiments
[1] = Ferric reducing antioxidant power (FRAP); conditions: sample 1 mM, 30 min, gallic acid equivalents, mean (±SD), triplicate
Description: (§1) Table 3 Antioxidant activity.

[2] = ABTS radical scavenging activity; conditions: sample 1 mM, 30 min, gallic acid equivalents, mean (±SD), triplicate
Description: as §1

[3] = DPPH radical scavenging activity; conditions: sample 1 mM; for DPPH: 30 min, gallic acid equivalents, mean (±SD), triplicate
[4] = Homo sapiens, MCF7, 72 h, MCF-7, 72 h incubation
[5] = Homo sapiens, HCT-116, 72 h, HCT116, 72 h incubation
[6] = Homo sapiens, MCF7, MCF-7, 72 h incubation
[7] = Homo sapiens, HCT-116, HCT116, 72 h incubation

Row | SMILES | melting point [°C] | IC50 (Hela; Homo sapiens, HeLa, 72 h) [µM] | IC50 (MCF-10A; Homo sapiens, MCF-10A, 72 h) [µM] | IC50 (MCF-7; [4]) [µM] | IC50 (MDA-MB-231; Homo sapiens) [µM] | FRAP [1] | ABTS [2] | DPPH [3] | other results
1 | COn1cc(/C=C/C(=O)c2ccc(C(F)(F)F)cc2)c2ccccc21 [12c, (2E)-3-(1-methoxy-1H-indol-3-yl)-1-(4-trifluoromethylphenyl) prop-2-en-1-one] | 113 to 115 | 98 ± 2.8 | 38.4 ± 3.1 | 86 ± 3.5 | 81.3 ± 1.2 | – | – | – | IC50 (Bj-5ta; Homo sapiens): > 100 µM; IC50 (Jurkat; Homo sapiens): 39.3 ± 1.2 µM; IC50 (HCT116; [5]): 55.3 ± 1.7 µM
2 | O=C(/C=C/c1c[nH]c2ccccc12)c1ccccc1O [13a, (2E)-1-(2-hydroxyphenyl)-3-(1H-indol-3-yl)prop-2-en-1-one] | 179.5 to 181 | 39.6 ± 3.5 | 55.4 ± 3.6 | 44.7 ± 2.6 | 92.7 ± 1.8 | 125.2 (±9.4) µmol GAE/mmol | 292.4 (±12.4) µmol GAE/mmol | 14.2 (±0.4) µmol GAE/mmol | IC50 (Bj-5ta; Homo sapiens): 81.5 ± 0.2 µM; IC50 (Jurkat; Homo sapiens): 25.9 ± 2.4 µM; IC50 (HCT116; [5]): 40.5 ± 3.1 µM
3 | O=C(/C=C/c1ccc(O)cc1)c1c[nH]c2ccccc12 [17a, (2E)-3-(4-hydroxyphenyl)-1-(1H-indol-3-yl)prop-2-en-1-one] | 197 to 200 | 31.4 ± 2 | 28.6 ± 0.5 | 47.9 ± 0.2 | 39.6 ± 2.1 | 161.6 (±5.7) µmol GAE/mmol | 227.6 (±5.4) µmol GAE/mmol | 16.0 (±1.1) µmol GAE/mmol | –
4 | Cn1cc(C(=O)/C=C/c2ccc(O)cc2)c2ccccc21 [17b, (2E)-3-(4-hydroxyphenyl)-1-(1-methyl-1H-indol-3-yl)prop-2-en-1-one] | 236 to 239 | – | – | – | – | 156.2 (±1.1) µmol GAE/mmol | 218.9 (±5.6) µmol GAE/mmol | 20.7 (±6.6) µmol GAE/mmol | IC50 (MCF-10A; Homo sapiens): 22.8 ± 0.4 µM; IC50 (MCF-7; [6]): 50.3 ± 0.6 µM; IC50 (HCT116; [7]): > 100 µM
5 | COn1cc(C(=O)/C=C/c2ccc(O)cc2)c2ccccc21 [17c, (2E)-3-(4-hydroxyphenyl)-1-(1-methoxy-1H-indol-3-yl)prop-2-en-1-one] | 213 to 215 | 39.8 ± 1.6 | > 100 | > 100 | > 100 | 134.1 (±6.7) µmol GAE/mmol | 209.0 (±6.6) µmol GAE/mmol | 13.6 (±0.9) µmol GAE/mmol | –
6 | O=C(/C=C/c1ccc(O)c(O)c1)c1c[nH]c2ccccc12 [18a, (2E)-3-(3,4-dihydroxyphenyl)-1-(1H-indol-3-yl)prop-2-en-1-one] | 212 to 215 | – | 11.5 ± 1.4 | 42.3 ± 3.3 | 39.3 ± 1.9 | 480.9 (±28.8) µmol GAE/mmol | 401.2 (±39.2) µmol GAE/mmol | 520.1 (±6.9) µmol GAE/mmol | IC50 (HCT116; [5]): 29.8 ± 0.7 µM
7 | Cn1cc(C(=O)/C=C/c2ccc(O)c(O)c2)c2ccccc21 [18b, (2E)-3-(3,4-dihydroxyphenyl)-1-(1-methyl-1H-indol-3-yl)prop-2-en-1-one] | 210 to 214 | – | – | – | – | 564.8 (±2.2) µmol GAE/mmol | 487.3 (±43.9) µmol GAE/mmol | 589.1 (±8.9) µmol GAE/mmol | IC50 (Hela; Homo sapiens): 6.7 ± 0.8 µM; IC50 (MCF-10A; Homo sapiens): 7.8 ± 0.3 µM; IC50 (MCF-7; [6]): 37.4 ± 2.2 µM; IC50 (HCT116; [7]): 7.1 ± 0.7 µM
8 | COc1cc(/C=C/C(=O)c2cn(C)c3ccccc23)ccc1O [19b, (2E)-3-(4-hydroxy-3-methoxyphenyl)-1-(1-methyl-1H-indol-3-yl)prop-2-en-1-one] | 170 to 172 | – | – | – | – | 262.2 (±14.2) µmol GAE/mmol | 410.7 (±28.9) µmol GAE/mmol | 225.6 (±14.7) µmol GAE/mmol | IC50 (Hela; Homo sapiens): 34.9 ± 1.3 µM; IC50 (MCF-10A; Homo sapiens): 28.9 ± 0.8 µM; IC50 (MCF-7; [6]): 69.8 ± 1.1 µM
9 | COc1cc(/C=C/C(=O)c2cn(OC)c3ccccc23)ccc1O [19c, (2E)-3-(4-hydroxy-3-methoxyphenyl)-1-(1-methoxy-1H-indol-3-yl)prop-2-en-1-one] | 155 to 156 | – | – | – | – | 296.2 (±10.4) µmol GAE/mmol | 456.0 (±24.6) µmol GAE/mmol | 207.7 (±8.6) µmol GAE/mmol | –
10 | N.N.[Cl][Pt][Cl] [Cisplatin, reference compound] | – | – | – | – | – | – | – | – | IC50 (Hela): 6.5 ± 0.5 µM; IC50 (Bj-5ta): 37.9 ± 1.9 µM; IC50 (MCF-10A): 25.9 ± 2.1 µM; IC50 (MCF-7; MCF-7, 72 h incubation): 24.6 ± 2.1 µM; IC50 (MDA-MB-231): 17.4 ± 0.2 µM; IC50 (Jurkat): 6.3 ± 0.4 µM; IC50 (HCT116; HCT116, 72 h incubation): 15.3 ± 1.6 µM
11 | O=C(O)/C=C/c1ccc(O)c(O)c1 [caffeic acid, reference compound] | – | – | – | – | – | 500.0 (±33.5) µmol GAE/mmol | 586.0 (±32.8) µmol GAE/mmol | 690.7 (±36.6) µmol GAE/mmol | DPPH activity [3]: 690.7 ± 36.6 GAE/mmol
12 | O=C(O)/C=C/c1ccc(O)cc1 [p -coumaric acid, p-coumaric acid, reference compound] | – | – | – | – | – | 105.2 (±4.2) µmol GAE/mmol | 278.8 (±11.1) µmol GAE/mmol | 23.0 (±3.1) µmol GAE/mmol | –
